Test results published in ChEMBL document CHEMBL1821642, “Discovery of 7-hydroxy-6-methoxy-2-methyl-3-(3,4,5-trimethoxybenzoyl)benzo[b]furan (BNC105), a tubulin polymerization inhibitor with potent antiproliferative and tumor vascular disrupting properties” (J Med Chem, 2011).
The source made the active and inactive calls. The rule behind the calls is not given here.

Key:
[1] = system: HUVEC; test: Selectivity ratio of IC50 for HUVEC grown in absence of growth factors to IC50 for HUVEC grown in presence of growth factors; type: functional, Homo sapiens
[2] = system: HUVEC; test: Antiproliferative activity against HUVEC grown in presence of growth factors after 48 hrs by spectrophotometry; type: functional, cell-based; settings: Homo sapiens
[3] = system: HUVEC; test: Antiproliferative activity against HUVEC grown in absence of growth factors after 48 hrs by spectrophotometry; type: functional, cell-based; settings: Homo sapiens
[4] = system: MCF7; test: Antiproliferative activity against human MCF7 cells assessed after 48 hrs by spectrophotometry; type: functional, cell-based; settings: MCF7, 48 h
[5] = system: 786-0; test: Antiproliferative activity against MDR-1 overexpressing human 786-0 cells; type: functional, cell-based
[6] = system: 786-0; test: Antiproliferative activity against MDR-1 overexpressing human 786-0 cells in presence of MDR1 inhibitor verapamil; type: functional, cell-based
[7] = Inhibition of tubulin polymerization by spectrophotometry
[8] = system: MDA-MB-231; test: Antitumor activity against human MDA-MB-231 xenografted in mouse assessed as tumor growth inhibition at 10 mg/kg administered on day 1 and 5; type: functional, organism-based; set-up: dose 10 mg/kg
[9] = Aqueous solubility of the compound; type: physicochemical; settings: buffer
[10] = system: MDA-MB-231; test: Antitumor activity against human MDA-MB-231 xenografted in mouse assessed as tumor growth inhibition at 40 mg/kg administered on day 1 and 8 measured after 70 days; type: functional, organism-based; set-up: dose 40 mg/kg
[11] = system: A2780; test: Cytotoxicity against human A2780 cells; type: functional, cell-based
[12] = system: A-375; test: Antiproliferative activity against human A375 after 48 hrs by spectrophotometry; type: functional, cell-based; settings: A-375, 48 h
[13] = Cytotoxicity against human A2780/ADR cells; type: functional, cell-based
[14] = Drug uptake in tumor of MDA-MB-231 breast cancer BALB/c mouse model at 1 to 150 mg/kg, iv measured after 24 hrs; type: ADME, organism-based; set-up: dose 1-150 mg/kg, route intravenous; settings: in vivo
[15] = Cytotoxicity against human A2780cis cells; type: functional, cell-based; settings: A2780cisR
[16] = Antiproliferative activity against human HAAE1 grown in presence of growth factors after 48 hrs by spectrophotometry; type: functional
[17] = system: MDA-MB-231; test: Antiproliferative activity against human MDA-MB-231 after 48 hrs by spectrophotometry; type: functional, cell-based; settings: MDA-MB-231, 48 h
[18] = Antiproliferative activity against human HAAE1 grown in absence of growth factors after 48 hrs by spectrophotometry; type: functional
[19] = system: BT-549; test: Antiproliferative activity against human BT549 after 48 hrs by spectrophotometry; type: functional, cell-based; settings: BT-549, 48 h
[20] = system: Rattus norvegicus; test: Half life in Sprague-Dawley rat at 6 umol/kg, iv; type: ADME, organism-based; settings: in vivo
[21] = system: Rattus norvegicus; test: Volume of distribution at steady state in Sprague-Dawley rat at 6 umol/kg, iv; type: ADME, organism-based; settings: in vivo
[22] = system: DU-145; test: Antiproliferative activity against human DU145 after 48 hrs by spectrophotometry; type: functional, cell-based; settings: DU-145, 48 h
[23] = system: AU565; test: Antiproliferative activity against human AU565 after 48 hrs by spectrophotometry; type: functional, cell-based; settings: AU565, 48 h
[24] = system: SK-OV-3; test: Antiproliferative activity against human SKOV3 after 48 hrs by spectrophotometry; type: functional, cell-based; settings: SK-OV-3, 48 h
[25] = system: LoVo; test: Antiproliferative activity against human LoVo after 48 hrs by spectrophotometry; type: functional, cell-based
[26] = system: Calu-6; test: Antiproliferative activity against human Calu6 after 48 hrs by spectrophotometry; type: functional, cell-based; settings: Calu-6, 48 h
[27] = Antiproliferative activity against human U87MG after 48 hrs by spectrophotometry; type: functional, U-87MG ATCC; settings: U-87 MG
[28] = system: MDA-MB-231; test: Antitumor activity against human MDA-MB-231 xenografted in mouse assessed as tumor growth inhibition at 150 mg/kg administered on day 1 and 5; type: functional, organism-based; set-up: dose 150 mg/kg
[29] = system: Plasma; test: Plasma protein binding in Sprague-Dawley rat at 6 umol/kg, iv; type: ADME, cell-free
[30] = system: A-431; test: Antiproliferative activity against human A431 after 48 hrs by spectrophotometry; type: functional, cell-based; settings: A-431, 48 h

Structure (SMILES)	Ratio IC50 [1]	IC50 ([2]; read-out: IC50)	IC50 [3]	IC50 [4]	IC50 [7]	other results
COc1ccc2c(C(=O)c3cc(OC)c(OC)c(OC)c3)c(-c3ccc(OC)nc3)oc2c1	0.6	45 nM	27 nM	71 nM	–	–
CC[C@]1(O)C[C@@H]2CN(CCc3c([nH]c4ccccc34)[C@@](C(=O)OC)(c3cc4c(cc3OC)N(C)[C@H]3[C@@](O)(C(=O)OC)[C@H](OC(C)=O)[C@]5(CC)C=CCN6CC[C@]43[C@@H]65)C2)C1 [VINBLASTINE]	–	–	–	–	–	IC50 [5]: 4.5 nM; IC50 [6]: 0.31 nM
COc1cc(C(=O)c2c(N)oc3c(O)c(OC)ccc23)cc(OC)c1OC	4.6	1.9 nM	8.8 nM	–	–	–
COc1cc(C(=O)c2c(-c3cccs3)oc3c(O)c(OC)ccc23)cc(OC)c1OC	1.2	0.31 nM	0.36 nM	0.5 nM	–	–
COc1cc(C(=O)c2c(NCCO)oc3c(O)c(OC)ccc23)cc(OC)c1OC	0.9	3.1 nM	2.9 nM	–	–	–
COc1cc(C(=O)c2c(-c3cnn(C)c3)oc3c(O)c(OC)ccc23)cc(OC)c1OC	1.8	0.4 nM	0.7 nM	1 nM	1300 nM	–
COc1cc(C(=O)c2c(C)oc3c(OP(=O)([O-])[O-])c(OC)ccc23)cc(OC)c1OC.[Na+].[Na+]	–	–	–	–	–	growth inhibition (GI) [8]: Active; solubility [9]: soluble; growth inhibition (GI) [10]: Active
COc1ccc2c(C(=O)c3cc(OC)c(OC)c(OC)c3)c(Br)oc2c1	0.6	510 nM	309 nM	–	–	–
COc1ccc2c(C(=O)c3cc(OC)c(OC)c(OC)c3)coc2c1	1.4	45 nM	63 nM	55 nM	1600 nM	–
CC[C@]1(O)C[C@H]2CN(CCc3c([nH]c4ccccc34)[C@@](C(=O)OC)(c3cc4c(cc3OC)N(C=O)[C@H]3[C@@](O)(C(=O)OC)[C@H](OC(C)=O)[C@]5(CC)C=CCN6CC[C@]43[C@@H]65)C2)C1 [VINCRISTINE]	–	–	–	–	–	IC50 [5]: 37 nM; IC50 [6]: 1.2 nM
COc1cc(C(=O)c2c(/C=C/C(N)=O)oc3c(O)c(OC)ccc23)cc(OC)c1OC	0.9	2.6 nM	2.3 nM	–	–	–
COc1cc(C(=O)c2c(C)oc3c(O)c(OC)ccc23)cc(OC)c1OC	–	0.31 nM	25 nM	2.4 nM	3000 nM	IC50 [11]: 0.03 nM; IC50 [12]: 1.5 nM; IC50 [13]: 0.06 nM; Drug uptake [14]: 64%; IC50 [15]: 0.01 nM; IC50 [16]: 0.1 nM; IC50 [17]: 0.63 nM; IC50 [18]: 12 nM; IC50 [19]: 0.34 nM; t1/2 [20]: 3.5 h; Vdss [21]: 7.1 L/kg; solubility [9]: Insoluble; IC50 [22]: 0.36 nM; IC50 [23]: 5.8 nM; IC50 [24]: 0.59 nM; IC50 [25]: 0.24 nM; IC50 [26]: 0.16 nM; IC50 [27]: 0.41 nM
COC(=O)/C=C/c1oc2c(O)c(OC)ccc2c1C(=O)c1cc(OC)c(OC)c(OC)c1	6	0.38 nM	2.3 nM	–	–	–
COc1cc(C(=O)c2c(C#N)oc3c(O)c(OC)ccc23)cc(OC)c1OC	2.7	1.1 nM	3 nM	–	–	–
COc1ccc2c(C(=O)c3cc(OC)c(OC)c(OC)c3)c(N3CCN(C)CC3)oc2c1	0.8	484 nM	405 nM	215 nM	–	–
COc1cc(C(=O)c2coc3c(O)c(OC)ccc23)cc(OC)c1OC	–	83 nM	322 nM	45 nM	–	–
COc1ccc2c(C(=O)c3cc(OC)c(OC)c(OC)c3)c(-c3ccc(OC)c(N)c3)oc2c1	1.4	32 nM	44 nM	26 nM	1900 nM	–
COc1ccc2c(C(=O)c3cc(OC)c(OC)c(OC)c3)c(-c3ccc4c(ccn4C)c3)oc2c1	0.8	41 nM	32 nM	–	1300 nM	–
COc1ccc(-c2oc3c(O)c(OC)ccc3c2C(=O)c2cc(OC)c(OC)c(OC)c2)cc1O	2	1.7 nM	3.4 nM	4 nM	800 nM	–
COc1ccc(-c2sccc2C(=O)c2cc(OC)c(OC)c(OC)c2)cc1O	–	–	–	–	1000 nM	–
COc1ccc(/C=C\c2cc(OC)c(OC)c(OC)c2)cc1OP(=O)(O)O	–	–	–	–	–	growth inhibition (GI) [28]: Active
COc1cc(C(=O)c2c(-c3ccco3)oc3c(O)c(OC)ccc23)cc(OC)c1OC	0.9	3.6 nM	3.4 nM	0.6 nM	8700 nM	–
CC(=O)O[C@H]1C(=O)[C@@]2(C)[C@H]([C@H](OC(=O)c3ccccc3)[C@]3(O)C[C@H](OC(=O)[C@H](O)[C@@H](NC(=O)c4ccccc4)c4ccccc4)C(C)=C1C3(C)C)[C@]1(OC(C)=O)CO[C@@H]1C[C@@H]2O [PACLITAXEL]	–	–	–	–	–	IC50 [5]: 31 nM; IC50 [6]: 4 nM
COc1ccc(/C=C\c2cc(OC)c(OC)c(OC)c2)cc1O [COMBRETASTATIN A4]	–	–	3.9 nM	–	–	PPB [29]: 98.9%; IC50 [19]: 3.5 nM; t1/2 [20]: 0.7 h; Vdss [21]: 7.3 L/kg; IC50 [2]: 3.6 nM; IC50 [22]: 4 nM; IC50 [23]: 4.4 nM; IC50 [26]: 0.94 nM; IC50 [30]: 188 nM
COc1cc(C(=O)c2c(NCCN(C)C)oc3c(O)c(OC)ccc23)cc(OC)c1OC	1.2	29 nM	36 nM	–	–	–
COc1cc(C(=O)c2c(-n3cccc3)oc3c(O)c(OC)ccc23)cc(OC)c1OC	–	–	3.3 nM	–	–	–
COc1cc(C(=O)c2c(-c3cnn(C)c3)oc3c(OC(C)C)c(OC)ccc23)cc(OC)c1OC	0.6	665 nM	419 nM	42 nM	–	–
COc1ccc2c(C(=O)c3cc(OC)c(OC)c(OC)c3)c(-c3ccc(O)cc3)oc2c1	1.1	30 nM	34 nM	48 nM	2300 nM	–
